Results from patent EP2050758A1, “New polypeptides and uses thereof in cancer therapy” (INSTITUT NATIONAL DE LA SANTE ET DE LA RECHERCHE MEDICALE …, priority 2007, dated 2009).

Experiments:
B16F10 melanoma cells = assay: Tumor growth of aptamer-expressing B16F10 cells injected subcutaneously into syngeneic mice; type: in vivo, C57/B16 mice; conditions: mice bearing control tumors (wt B16F10 and B16F10-A0), cisplatin 10 mg/kg
From the text: To determine whether the chemosensitizing effect of A8 and A18 aptamers observed in vitro was also detected in vivo, mouse B16F10 melanoma cells were stably transfected with the aptamer expression vectors (A8, A18 and, as a control, A0). Stably transfected cells were selected using G418 (SIGMA) according to the manufacturer's instruction.
Exponentially growing B16F10 cells (wild type and aptamers-transfected) were harvested, washed in PBS, and resuspended in RPMI medium without foetal bovine serum (FBS) to a concentration of 2x10^5 B16F10 cells in 100 µl. B16F10 cells were then injected subcutaneously into the right side of syngeneic C57/B16 mice (9 mice/group). Next, some mice bearing B16F10-A0, B16F10-A8 or B16F10-A18 tumors were treated with cisplatin (10 mg/kg), given intraperitonealy as a single dose at day 6 after tumor cells injection. Tumor volume was evaluated for all mice every two days, using a caliper to measure two perpendicular diameters.

ATPase domain of HSP70 = conditions: MAMELAK & LINGWOOD, J. Biol. Chem. 2001; cited from earlier work

Row | Molecule | effect of cisplatin treatment on the size of the tumors (B16F10 melanoma cells) | binding to the ATPase domain of HSP70 (ATPase domain of HSP70)
1 | N.N.[Cl][Pt][Cl] [cisplatin] | slightly reduced the size of the tumors | –
2 | 3'-sulfogalactosylglycerolipid [SGG] | – | known to bind
3 | 3'-sulfogalactosyl ceramide [SGC] | – | known to bind
